Data from patent publication US11426473B2, “Nitrogen-containing compound or salt thereof, or metal complex thereof” (FUJIFILM Corporation, priority 2013, dated 2022).
Counter-ions that a name gives are not always drawn. Like-named read-outs stand apart in the source and are kept apart here.

Key:
Integrin αvβ5 = target: T1, Integrin αvβ5 (Homo sapiens, UniProt P06756+P18084); test: Integrin αvβ5 binding affinity test
T1 construct: purchased Chemicon International, Inc
Description: (§1) […] αvβ5 (Chemicon International, Inc.) was immobilized on each well of a 96-well plate (Corning Inc.). Each well was blocked with a 1% Block Ace (DS Pharma Biomedical Co., Ltd) solution and then washed with PBST (10 mM Na2HPO4 pH 7.5, 150 mM NaCl, and 0.01% Tween 20). Evaluation compound solutions having a 2-fold concentration (10 concentrations of 3.16-fold dilutions from 0.3 μmol/L, buffer (20 mM Tris-HCl pH 7.5, 150 mM NaCl, 1 mM CaCl2, 1 mM MgCl2, and 1 mM MnCl2)) and a 4 μg/mL biotinylated vitronectin solution (vitronectin (Upstate Biotechnology Inc.) was labeled with EZ-Link Sulfo-NHS-Biotinylation Kit (Pierce/Thermo Fisher Scientific Inc.) and then concentration-adjusted) were each added at 50 μL/well, and the plate was shaken at room temperature for 2 hours. After washing with PBST, a 0.2 μg/mL avidin peroxidase (Pierce/Thermo Fisher Scientific Inc.) solution was added thereto, and the plate was shaken at room temperature for 1 hour. After washing with PBST, color was developed by an o-phenylenediamine (Sigma-Aldrich Inc.) solution (the reaction was terminated by the addition of 4 mol/L sulfuric acid), and the absorbance was measured (490 nm, Reference: 595 nm). The IC50 value was calculated using XLfit 3.0 (ID Business Solutions Ltd.). RGDfV (Bachem AG) was measured in duplicate as a QC sample for each plate.

Integrin αvβ3 = target: T2, Integrin αvβ3 (Homo sapiens, UniProt P05106+P06756); test: Integrin αvβ3 binding affinity test
T2 construct: purchased Chemicon International, Inc
T2 sequence (P06756 31-889 limits assumed): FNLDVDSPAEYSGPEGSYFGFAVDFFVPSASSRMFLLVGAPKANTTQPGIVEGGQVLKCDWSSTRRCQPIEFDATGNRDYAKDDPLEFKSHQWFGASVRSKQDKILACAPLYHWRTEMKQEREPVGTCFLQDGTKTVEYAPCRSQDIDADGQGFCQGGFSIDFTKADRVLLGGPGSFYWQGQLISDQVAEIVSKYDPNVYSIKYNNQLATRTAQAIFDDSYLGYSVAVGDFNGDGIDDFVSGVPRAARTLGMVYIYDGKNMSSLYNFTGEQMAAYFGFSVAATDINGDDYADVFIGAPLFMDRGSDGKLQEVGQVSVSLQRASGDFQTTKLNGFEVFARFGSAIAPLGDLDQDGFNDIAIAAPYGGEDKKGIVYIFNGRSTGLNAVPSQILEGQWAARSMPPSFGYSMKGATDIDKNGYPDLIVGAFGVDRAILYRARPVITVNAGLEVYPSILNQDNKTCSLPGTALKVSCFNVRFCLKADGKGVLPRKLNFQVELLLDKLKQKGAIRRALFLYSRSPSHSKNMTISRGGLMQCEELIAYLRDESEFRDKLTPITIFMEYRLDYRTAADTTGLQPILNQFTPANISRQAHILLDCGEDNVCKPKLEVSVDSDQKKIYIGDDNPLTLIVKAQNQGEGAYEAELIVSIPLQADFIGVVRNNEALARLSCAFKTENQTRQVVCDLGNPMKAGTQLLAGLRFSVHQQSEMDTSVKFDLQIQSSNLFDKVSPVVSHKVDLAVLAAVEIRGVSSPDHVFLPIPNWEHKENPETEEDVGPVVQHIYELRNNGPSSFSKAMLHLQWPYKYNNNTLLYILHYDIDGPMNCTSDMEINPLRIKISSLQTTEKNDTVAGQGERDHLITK
T2 sequence (P06756 891-1048 partner limits assumed): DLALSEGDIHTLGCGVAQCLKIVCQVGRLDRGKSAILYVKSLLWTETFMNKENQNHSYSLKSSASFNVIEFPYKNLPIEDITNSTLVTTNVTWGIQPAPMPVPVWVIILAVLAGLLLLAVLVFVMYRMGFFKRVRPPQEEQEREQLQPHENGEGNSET
T2 sequence (P05106 27-788): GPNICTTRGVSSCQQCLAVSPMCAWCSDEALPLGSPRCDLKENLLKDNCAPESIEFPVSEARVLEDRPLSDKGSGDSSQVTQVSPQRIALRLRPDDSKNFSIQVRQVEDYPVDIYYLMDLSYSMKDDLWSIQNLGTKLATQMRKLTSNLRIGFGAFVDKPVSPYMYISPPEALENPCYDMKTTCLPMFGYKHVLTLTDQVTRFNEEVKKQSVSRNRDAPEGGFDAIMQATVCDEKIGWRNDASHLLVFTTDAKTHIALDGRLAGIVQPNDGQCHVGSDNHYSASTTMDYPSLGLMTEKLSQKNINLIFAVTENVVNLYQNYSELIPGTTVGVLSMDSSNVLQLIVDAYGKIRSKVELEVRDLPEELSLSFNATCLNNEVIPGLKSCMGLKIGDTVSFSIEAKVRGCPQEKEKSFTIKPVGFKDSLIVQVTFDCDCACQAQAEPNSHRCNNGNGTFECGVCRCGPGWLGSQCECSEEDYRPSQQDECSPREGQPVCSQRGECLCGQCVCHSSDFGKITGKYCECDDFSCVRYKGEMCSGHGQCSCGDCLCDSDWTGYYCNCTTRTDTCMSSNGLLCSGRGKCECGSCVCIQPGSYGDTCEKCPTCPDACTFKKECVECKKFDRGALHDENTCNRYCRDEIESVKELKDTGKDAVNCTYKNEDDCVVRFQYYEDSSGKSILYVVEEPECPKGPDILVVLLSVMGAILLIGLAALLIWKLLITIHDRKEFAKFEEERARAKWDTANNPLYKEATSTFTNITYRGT
Description: as §1, with “αvβ3” for “αvβ5”, “T-PBS (PBS containing 0.05%” for “PBST (10 mM Na2HPO4 pH 7.5, 150 mM NaCl, and 0.01%”, “T-PBS,” for “PBST,”

[1] = inhibition of biotinylated vitronectin binding to immobilized αvβ5, read-out: IC50 value αvβ5
[2] = inhibition of biotinylated vitronectin binding to immobilized αvβ3, read-out: IC50 value αv β3

T1 sequence (P06756 31-889 limits assumed): as the sequence (P06756 31-889 limits assumed) above
T1 sequence (P06756 891-1048 partner limits assumed): as the sequence (P06756 891-1048 partner limits assumed) above
T1 sequence (P18084 24-799): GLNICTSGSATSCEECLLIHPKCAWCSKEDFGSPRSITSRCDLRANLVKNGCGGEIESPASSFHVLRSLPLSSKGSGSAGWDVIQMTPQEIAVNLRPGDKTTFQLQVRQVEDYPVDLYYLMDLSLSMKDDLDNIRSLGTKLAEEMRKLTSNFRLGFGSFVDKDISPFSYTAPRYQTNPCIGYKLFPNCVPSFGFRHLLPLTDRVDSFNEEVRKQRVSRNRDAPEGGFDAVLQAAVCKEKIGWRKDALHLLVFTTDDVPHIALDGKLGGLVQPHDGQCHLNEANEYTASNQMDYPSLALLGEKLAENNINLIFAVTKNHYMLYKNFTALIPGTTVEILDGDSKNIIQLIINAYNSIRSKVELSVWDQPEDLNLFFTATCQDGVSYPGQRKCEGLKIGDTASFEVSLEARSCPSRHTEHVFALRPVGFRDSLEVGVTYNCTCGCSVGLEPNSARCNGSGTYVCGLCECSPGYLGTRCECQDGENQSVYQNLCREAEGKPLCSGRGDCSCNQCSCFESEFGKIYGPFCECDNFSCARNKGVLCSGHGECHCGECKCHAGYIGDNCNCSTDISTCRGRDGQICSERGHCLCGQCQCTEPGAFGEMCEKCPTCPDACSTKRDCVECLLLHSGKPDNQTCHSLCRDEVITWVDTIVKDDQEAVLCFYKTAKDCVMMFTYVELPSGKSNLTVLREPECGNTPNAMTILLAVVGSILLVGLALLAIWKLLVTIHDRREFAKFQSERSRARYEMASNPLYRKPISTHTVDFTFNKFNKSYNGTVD

Row | SMILES | IC50 (Integrin αvβ5; [1]) [nM] | IC50 (Integrin αvβ3; [2]) [nM] | IC50 (Integrin αvβ5) [nM] | IC50 (Integrin αvβ3) [nM]
1 | Cc1cc(OCCCC(=O)NCCNC(=O)[C@H](CS(=O)(=O)O)NC(=O)[C@H](CS(=O)(=O)O)NC(=O)CN2CCN(CC(=O)O)CCN(CC(=O)O)CCN(CC(=O)O)CC2)cc(C)c1S(=O)(=O)N[C@@H](CNC(=O)CCCCc1ccc2c(n1)NCCC2)C(=O)O [Compound O10, 2,2′,2′-(10-((4R,7R)-16-(4-(N—((S)-1-carboxy-2-(5-(5,6,7,8-tetrahydro-1,8-naphthyridin-2-yl)pentanamido)ethyl)sulfamoyl)-3,5-dimethylphenoxy)-2,5,8,13-tetraoxo-4,7-bis(sulfomethyl)-3,6,9,12-tetraazahexadecyl)-1,4,7,10-tetraazacyclododecane-1,4,7-triyl)triacetic acid] | < 1 | < 1 | – | –
2 | Cc1cc(OCCCC(=O)NCCNC(=O)[C@H](CS(=O)(=O)O)NC(=O)CN2CCN(CC(=O)O)CCN(CC(=O)O)CCN(CC(=O)O)CC2)cc(C)c1S(=O)(=O)N[C@@H](CNC(=O)CCCCc1ccc2c(n1)NCCC2)C(=O)O [Compound P2, 2,2′,2′-(10-(2-(((R)-1-((2-(4-(4-(N—((S)-1-carboxy-2-(5-(5,6,7,8-tetrahydro-1,8-naphthyridin-2-yl)pentanamido)ethyl)sulfamoyl)-3,5-dimethylphenoxy)butanamido)ethyl)amino)-1-oxo-3-sulfopropan-2-yl)amino)-2-oxoethyl)-1,4,7,10-tetraazacyclododecane-1,4,7-triyl)triacetic acid] | < 1 | < 1 | – | –
3 | Cc1cc(OCCCC(=O)NCCNC(=O)[C@H](CS(=O)(=O)O)NC(=O)[C@H](CS(=O)(=O)O)NC(=S)Nc2ccc(C[C@@H](CN(CC(=O)O)CC(C)N(CC(=O)O)CC(=O)O)N(CC(=O)O)CC(=O)O)cc2)cc(C)c1S(=O)(=O)N[C@@H](CNC(=O)c1ccc(CCc2ccc3c(n2)NCCC3)cc1)C(=O)O (stereo partly drawn) [Compound R3, 2,2′-((1-(((S)-2-(bis(carboxymethyl)amino)-3-(4-(3-((R)-1-(((R)-1-((2-(4-(4-(N—((S)-1-carboxy-2-(4-(2-(5,6,7,8-tetrahydro-1,8-naphthyridin-2-yl)ethyl)benzamido)ethyl)sulfamoyl)-3,5-dimethylphenoxy)butanamido)ethyl)amino)-1-oxo-3-sulfopropan-2-yl)amino)-1-oxo-3-sulfopropan-2-yl)thioureido)phenyl)propyl) (carboxymethyl)amino)propan-2-yl)azanediyl)diacetic acid] | < 1 | < 1 | – | –
4 | Cc1cc(OCCCC(=O)NCCNC(=O)CN2CCN(CC(=O)O)CCN(CC(=O)O)CCN(CC(=O)O)CC2)cc(C)c1S(=O)(=O)N[C@@H](CNC(=O)c1ccc(CCc2ccc3c(n2)NCCC3)cc1)C(=O)O [Compound S2, (S)-2,2′,2″-(10-(2-((2-(4-(4-(N-(1-carboxy-2-(4-(2-(5,6,7,8-tetrahydro-1,8-naphthyridin-2-yl)ethyl)benzamido)ethyl)sulfamoyl)-3,5-dimethylphenoxy)butanamido)ethyl)amino)-2-oxoethyl)-1,4,7,10-tetraazacyclododecane-1,4,7-triyl)triacetic acid] | < 1 | < 1 | – | –
5 | Cc1cc(OCCCC(=O)NCCNC(=O)[C@H](CS(=O)(=O)O)NC(=O)CN2CCN(CC(=O)O)CCN(CC(=O)O)CCN(CC(=O)O)CC2)cc(C)c1S(=O)(=O)N[C@@H](CNC(=O)CCCCCc1ccc2c(n1)NCCC2)C(=O)O [Compound W10, 2,2′,2″-(10-(2-(((R)-1-((2-(4-(4-(N—((S)-1-carboxy-2-(6-(5,6,7,8-tetrahydro-1,8-naphthyridin-2-yl)hexanamido)ethyl)sulfamoyl)-3,5-dimethylphenoxy)butanamido)ethyl)amino)-1-oxo-3-sulfopropan-2-yl)amino)-2-oxoethyl)-1,4,7,10-tetraazacyclododecane-1,4,7-triyl)triacetic acid] | 1 to 10 | < 1 | – | –
6 | Cc1cc(OCCCC(=O)NCCNC(=O)[C@H](CS(=O)(=O)O)NC(=O)[C@H](CS(=O)(=O)O)NC(=O)CN2CCN(CC(=O)O)CCN(CC(=O)O)CCN(CC(=O)O)CC2)cc(C)c1S(=O)(=O)N[C@@H](CNC(=O)c1ccc(CCc2ccc3c(n2)NCCC3)s1)C(=O)O [Compound X9, 2,2′,2″-(10-((4R,7R)-16-(4-(N—((S)-1-carboxy-2-(5-(2-(5,6,7,8-tetrahydro-1,8-naphthyridin-2-yl)ethyl)thiophene-2-carboxamido)ethyl)sulfamoyl)-3,5-dimethylphenoxy)-2,5,8,13-tetraoxo-4,7-bis(sulfomethyl)-3,6,9,12-tetraazahexadecyl)-1,4,7,10-tetraazacyclododecane-1,4,7-triyl)triacetic acid] | 1 to 10 | < 1 | – | –
7 | O=C(O)CN1CCN(CC(=O)O)CCN(CC(=O)N[C@@H](CS(=O)(=O)O)C(=O)N[C@@H](CS(=O)(=O)O)C(=O)NCCNC(=O)CCCOc2ccc(S(=O)(=O)N[C@@H](CNC(=O)c3ccc(CCc4ccc5c(n4)NCCC5)cc3)C(=O)O)cc2)CCN(CC(=O)O)CC1 [Compound Y13, 2,2′,2″-(10-((4R,7R)-16-(4-(N—((S)-1-carboxy-2-(4-(2-(5,6,7,8-tetrahydro-1,8-naphthyridin-2-yl)ethyl)benzamido)ethyl)sulfamoyl)phenoxy)-2,5,8,13-tetraoxo-4,7-bis(sulfomethyl)-3,6,9,12-tetraazahexadecyl)-1,4,7,10-tetraazacyclododecane-1,4,7-triyl)triacetic acid hexasodium salt] | < 1 | < 1 | – | –
8 | Cc1cc(OCCCC(=O)NCCNC(=O)C(CS(=O)(=O)O)NC(=O)CN2CCN3CCN4CCN(CC2)CC(=O)[O][Y]([O]C(=O)C3)[O]C(=O)C4)cc(C)c1S(=O)(=O)NC(CNC(=O)CCCCc1ccc2c(n1)NCCC2)C(=O)O (stereo not shown) [DD] | – | – | < 1 | < 1
